Laboratory results published in US7598032B2, “Thermostable DNA polymerases incorporating nucleoside triphosphates labeled with fluorescent dyes” (Roche Molecular Systems, priority 1997, dated 2009).

Key:
Format in all cases: biochemical
[1] = standard PCR reaction with cyanine-labeled dNTPs; settings: compared with the wild-type enzyme
Excerpt: Although the examples provided herein use dideoxynucleotides labeled with fluorescein family dyes, the use of other unconventional nucleotides and fluorescent dyes is also within the scope of this invention. Other unconventional nucleotides include fluorescently-labled dNTPs, which can be used to label the products of DNA synthesis, and fluorescently-labled rNTPs, which can be used to label the primer extension products. Other dyes include other negatively charged fluorescent dyes, such as BODIPY, which are structurally and chemically similar to fluorescein. Other dyes also include cyanine dyes. Cyanine-labeled dNTPs were added to a standard PCR reaction which included a Taq DNA polymerase with the […] mutation (and a G46D mutation). […] Thus, in this aspect, a method of labeling DNA of the invention uses a native or mutant polymerase of the invention in combination with a nucleotide labeled with either a negatively charged fluorescent dye or a cyanine dye. In one embodiment, the DNA labeling method of the invention comprises: […]

[2] = test system: primer DG48 annealed to M13 mp18 template; assay: limiting template, primer extension competition assay (ddNTP incorporation assay); settings: ratio of concentrations for 50% inhibition by Zowie-ddCTP vs. ddCTP
Experimental: The ability of the enzymes of this invention to efficiently incorporate nucleotides labeled with fluorescein family dyes is measured by ddNTP incorporation assays. One such assay is a primer extension competition assay conducted under conditions of limiting template. In this assay, a primer DG48 (5′-[…]), (SEQ ID NO: 11), bound to M13 mp18 template (Innis et al., 1988, Proc. Natl. Acad. Sci. USA 85:9436) is extended in the presence of [α-^33P]dCTP and excess enzyme with various levels of a fluorescently labeled ddNTP, Zowie-ddCTP. Because the incorporation of a ddCTP residue terminates the extension reaction, the more readily a DNA polymerase incorporates a ddCTP into an extended primer, the less [α-^33P]dCTP can be incorporated. Thus, as the efficiency of fluorescently labeled ddCTP incorporation increases, the extent of inhibition of DNA synthesis is increased. The reactions were also performed with various levels of an unlabeled ddCTP. […]
The relative abilities of G46D F667Y Taq, G46D F667Y E681K Taq and F730Y Tma30 DNA polymerases to incorporate a fluorescein dye family-labeled ddCTP were compared by use of a limiting template, primer extension competition assay. […] In this competition assay, because the incorporation of a ddCTP terminates the extension reaction, the more readily the polymerase incorporates a ddCTP into an extended primer, the less [α-^33P]dCTP can be incorporated. […]

[3] = test system: primer annealed to an M13 template; assay: Extension rate assay; settings: 75° C
Experimental: The extension rate of G46D F667Y Taq and G46D F667Y E681K Taq were determined using an extension rate assay. In this experiment, the enzymes were used to extend a primer annealed to an M13 template in the presence of [α-^33P]dCTP. The extension reactions were denatured and the products analyzed by denaturing agarose gel electrophoresis.
The assay was performed as previously described (Lawyer et al., 1989, J. Biol. Chem. 264:6427) including the following modifications. The assay mixture was composed so the final concentration was 50 mM Bicine pH 8.3, 25° C., 2.5 mM MgCl2, 1 mM β-mercaptoethanol, 200 μM each of dATP, dGTP and dTTP (Perkin-Elmer), 100 μM dCTP (Perkin-Elmer) containing [α-^33P]dCTP (New England Nuclear, Boston, Mass.). M13 mp18 (Perkin-Elmer) was annealed to primer DG48, (SEQ ID NO: 11), and the equivalent of 0.085 pmoles of the annealed template was added to the assay mixture for each reaction. Forty-five μl of the assay mixture with template DNA was added to each of fourteen 0.5 ml eppendorf tubes. Each tube was preincubated at 75° C. for at least 30 seconds before the start of the polymerase reaction.
Polymerization was initiated in six of the fourteen assay tubes with 5 μl of G46D F667Y Taq DNA polymerase (2.5 units) or G46D F667Y E681K Taq DNA polymerase (1.25 units). Both enzymes were prepared as in Example I and the concentration used represents a predetermined excess amount of enzyme for the amount of substrate in the assay. As a control for the level of background, the remaining negative control was initiated with enzyme dilution buffer rather than polymerase. All reaction tubes were immediately vortexed briefly and incubated at 75° C. Two of the six tubes containing G46D F667Y Taq DNA polymerase were incubated 3 minutes, two for 6 minutes and two for 10 minutes. Similarly, two of the tubes started with G46D F667Y E681K Taq DNA polymerase were incubated for 30 seconds, two for 1 minute and two for 2 minutes. The control tubes were incubated for 3 minutes. The reactions were stopped by addition of 10 μl 60 mM EDTA and stored at 0° C.
For each reaction, a 25 μl aliquot of the 60 μl reaction was diluted with 1 ml 2 mM EDTA, 50 μg/ml sheared salmon sperm DNA as a carrier. The DNA was precipitated with TCA using standard procedures and collected on GF/C filter discs (Whatman). The amount of incorporated [α-^33P]dCMP was determined for each sample.
The remaining 35 μl of each duplicated were combined and the 70 μl sample was ethanol precipitated, dried and resuspended in 50 mM NaOH, 1 mM EDTA. Aliquots were removed from these samples such that an equal number of α-^33P] counts were taken from each. These aliquots were loaded on an 0.9% alkaline agarose gel, electrophoresed, dried and autoradiographed as previously described (Maniatis et al., 1982, In Molecular Cloning: A Laboratory Manual, Cold Spring Harbor Laboratory, Cold Spring Harbor, N.Y.) Bacteriophage lambda DNA cut with restriction enzyme HindIII (BRL) and 5′ end-labeled with [^32P] was used as a molecular weight standard.
The length in base pairs of the extension product in each sample was determined by comparison of the migration distance of each sample with the distance migrated by the lambda DNA size standard. The number of base pairs in each product was divided by the number of seconds each extension reaction incubated to give the extension rate as shown below.

[4] = screen of transformants for incorporation of [α-32P]Tet-dCTP; settings: in comparison to the wild-type enzyme
Excerpt: The C-terminal amino acid portion of Taq DNA polymerase encodes the polymerase active site domain (Lawyer et al., 1993, PCR Methods and Applications 2:275-287, Freemont et al., 1986, Proteins: Structure, Function and Genetics 1:66-73, which are incorporated herein by reference). A DNA fragment containing this region was isolated from the full-length Taq gene and mutagenized by PCR amplification in the presence of manganese (Leung et al, 1989, Technique 1(1):11-15). For this example, all restriction enzymes were purchased from New England Biolabs, Beverly Mass. The mutagenized fragments were digested with PstI and BglII and cloned into a Taq expression plasmid, pLK102, which had been digested with PstI and BglII. Plasmid pLK102 is a derivative of pLK101 in which the 900 bp PstI-BglII fragment is replaced by a short PstI-BglII linker. […]
The mutagenized Taq expression plasmid of mutant CS1 was digested with HindIII/NheI and the resulting restriction fragment was subcloned into the wild-type gene of pLK101, replacing the unmutagenized HindIII/NheI fragment, to determine which portion of the mutagenized Taq polymerase gene was responsible for the altered phenotype. […] Subsequent subclone analysis determined that the mutation was located in the 265 bp BamHI-NheI fragment.

Q: Which “incorporation of cyanine-labeled dNTPs into amplification products” value [1] does the source give for “G46D E681K Taq: thermostable Taq DNA polymerase with G46D and E681K mutations, encoded by plasmid pLK112” here?
A: The value was “higher than for the wild-type enzyme”.

Q: For “G46D F667Y Taq: Taq DNA polymerase having an F667Y mutation and a G46D mutation; known as AmpliTaq, FS [reference compound]”, which “Zowie-ddCTP/ddCTP (ratio of concentrations for 50% inhibition)” value [2] is on record?
A: The value was 25.

Q: And the “extension rate, Base Pairs/Sec” value ([3]; Time 3 min.)?
A: The value was 12.5 Base Pairs/Sec.

Q: What about the “extension rate, Base Pairs/Sec” value ([3]; Time 6 min.) of the same substance?
A: The value was 12.2 Base Pairs/Sec.

Q: What about the “extension rate, Base Pairs/Sec” value ([3]; Time 10 min.) of the same substance?
A: The value was 11.8 Base Pairs/Sec.

Q: With “Mutant CS1: mutagenized Taq DNA polymerase clone (plasmid pCS1) carrying the E681K mutation” as the substance, how does the “ability to incorporate [α-32P]Tet-dCTP” value [4] read?
A: Its value is “more efficiently incorporate”.
